Target: full-length ATR (Homo sapiens (Human), UniProt Q13535)
Assay: ATR Inhibition Assay (radioactive-phosphate incorporation)
Type: biochemical
Details: read-out: ATR Ki
Outline: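 Full-length human ATR (5 nM) was assayed at 25 °C in 50 mM Tris/HCl pH 7.5, 10 mM MgCl2, 1 mM DTT, with 10 μM [γ-33P]ATP and 800 μM peptide, after 10-min compound preincubation. Reactions were stopped after 24 h, captured on phosphocellulose and counted; Ki(app) came from non-linear regression of initial rates.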

full-length ATR, sequence (Q13535 whole entry): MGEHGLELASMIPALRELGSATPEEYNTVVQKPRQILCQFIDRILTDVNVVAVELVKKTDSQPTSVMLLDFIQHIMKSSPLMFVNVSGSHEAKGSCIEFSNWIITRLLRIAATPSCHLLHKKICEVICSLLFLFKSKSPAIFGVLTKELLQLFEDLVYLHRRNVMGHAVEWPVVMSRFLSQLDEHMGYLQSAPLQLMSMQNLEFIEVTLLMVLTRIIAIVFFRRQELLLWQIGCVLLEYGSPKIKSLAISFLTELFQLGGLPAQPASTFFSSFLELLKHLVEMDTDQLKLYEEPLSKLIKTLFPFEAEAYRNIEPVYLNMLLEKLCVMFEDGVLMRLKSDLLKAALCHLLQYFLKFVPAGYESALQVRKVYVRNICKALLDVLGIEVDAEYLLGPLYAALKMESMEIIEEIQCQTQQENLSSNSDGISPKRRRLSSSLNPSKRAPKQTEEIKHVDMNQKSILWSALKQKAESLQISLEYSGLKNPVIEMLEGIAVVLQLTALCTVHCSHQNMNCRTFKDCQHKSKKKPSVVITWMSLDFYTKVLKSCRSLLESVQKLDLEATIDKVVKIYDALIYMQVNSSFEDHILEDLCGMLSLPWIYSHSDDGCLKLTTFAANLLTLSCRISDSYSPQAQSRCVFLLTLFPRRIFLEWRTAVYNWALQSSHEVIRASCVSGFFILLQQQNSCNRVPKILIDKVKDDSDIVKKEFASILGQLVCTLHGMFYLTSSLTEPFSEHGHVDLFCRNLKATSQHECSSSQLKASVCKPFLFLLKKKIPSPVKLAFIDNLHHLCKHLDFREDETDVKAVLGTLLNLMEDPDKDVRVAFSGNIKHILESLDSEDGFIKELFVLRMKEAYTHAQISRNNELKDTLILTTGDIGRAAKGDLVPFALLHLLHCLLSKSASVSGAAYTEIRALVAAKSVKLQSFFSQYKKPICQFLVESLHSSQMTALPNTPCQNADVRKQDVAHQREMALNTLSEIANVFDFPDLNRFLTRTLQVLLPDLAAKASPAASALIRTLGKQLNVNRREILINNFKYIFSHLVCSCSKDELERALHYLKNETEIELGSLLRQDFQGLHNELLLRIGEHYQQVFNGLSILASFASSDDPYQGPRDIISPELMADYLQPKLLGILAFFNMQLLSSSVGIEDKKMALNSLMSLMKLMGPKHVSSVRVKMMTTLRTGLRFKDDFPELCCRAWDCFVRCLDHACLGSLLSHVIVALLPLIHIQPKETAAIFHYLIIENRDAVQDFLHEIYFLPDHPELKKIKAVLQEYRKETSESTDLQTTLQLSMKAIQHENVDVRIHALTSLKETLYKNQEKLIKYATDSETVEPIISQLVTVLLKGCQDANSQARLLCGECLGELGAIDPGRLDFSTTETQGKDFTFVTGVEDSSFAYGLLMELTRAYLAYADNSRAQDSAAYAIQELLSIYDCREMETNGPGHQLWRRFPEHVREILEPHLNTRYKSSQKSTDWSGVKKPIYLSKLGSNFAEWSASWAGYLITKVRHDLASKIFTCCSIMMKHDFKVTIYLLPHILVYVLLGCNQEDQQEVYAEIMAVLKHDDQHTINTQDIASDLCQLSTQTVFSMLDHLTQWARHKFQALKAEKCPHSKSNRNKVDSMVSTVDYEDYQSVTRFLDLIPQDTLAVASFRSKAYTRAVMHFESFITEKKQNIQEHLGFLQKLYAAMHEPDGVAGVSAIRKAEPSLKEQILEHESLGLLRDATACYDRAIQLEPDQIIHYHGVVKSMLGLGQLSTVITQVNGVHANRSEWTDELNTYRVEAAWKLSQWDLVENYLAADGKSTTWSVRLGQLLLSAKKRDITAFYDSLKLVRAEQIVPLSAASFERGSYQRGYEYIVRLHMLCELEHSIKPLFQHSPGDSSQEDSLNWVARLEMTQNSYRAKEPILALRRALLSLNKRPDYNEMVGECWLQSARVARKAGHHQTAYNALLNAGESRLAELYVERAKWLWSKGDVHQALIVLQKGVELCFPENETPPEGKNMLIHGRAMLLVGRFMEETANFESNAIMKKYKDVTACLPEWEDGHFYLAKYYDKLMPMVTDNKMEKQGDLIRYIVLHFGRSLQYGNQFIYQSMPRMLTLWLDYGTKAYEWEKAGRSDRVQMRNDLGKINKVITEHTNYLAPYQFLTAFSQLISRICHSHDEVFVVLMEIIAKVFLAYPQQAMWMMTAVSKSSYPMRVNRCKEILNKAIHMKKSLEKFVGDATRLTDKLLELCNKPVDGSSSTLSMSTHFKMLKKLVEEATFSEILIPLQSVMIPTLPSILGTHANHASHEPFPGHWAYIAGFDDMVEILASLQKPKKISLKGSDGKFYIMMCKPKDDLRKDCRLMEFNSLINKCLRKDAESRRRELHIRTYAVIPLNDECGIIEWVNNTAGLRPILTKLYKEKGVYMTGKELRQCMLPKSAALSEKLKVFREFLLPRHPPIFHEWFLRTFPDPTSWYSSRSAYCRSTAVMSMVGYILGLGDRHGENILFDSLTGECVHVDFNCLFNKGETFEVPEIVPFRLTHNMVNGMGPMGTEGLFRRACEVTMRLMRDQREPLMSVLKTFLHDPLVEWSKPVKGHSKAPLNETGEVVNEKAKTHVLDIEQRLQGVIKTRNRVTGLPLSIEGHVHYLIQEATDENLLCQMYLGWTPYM

Row | Ki [nM] | Compound
1 | 100 to 5000 | CC(=O)Nc1nnc(-c2nc(-c3ccc(C(=O)N(C)C)cc3)cnc2N)o1 [IA-278, 4-[6-(5-acetamido-1,3,4-oxadiazol-2-yl)-5-amino-pyrazin-2-yl]-N,N-dimethyl-benzamide]
2 | ≤ 10 | Nc1ncc(-c2ccc(C(=O)N3CCCNCC3)cc2)nc1-c1nnc(-c2ccccc2)s1 [IA-68, (4-(5-amino-6-(5-phenyl-1,3,4-thiadiazol-2-yl)pyrazin-2-yl)phenyl)(1,4-diazepan-1-yl)methanone]
3 | ≤ 10 | CS(=O)(=O)c1ccc(-c2cnc(N)c(-c3nc4cccc(O)c4[nH]3)n2)cc1 [Compound I-109, 2-(3-amino-6-(4-(methylsulfonyl)phenyl)pyrazin-2-yl)-1H-benzo[d]imidazol-7-ol]
4 | ≤ 10 | CN(C)C(=O)c1ccc(-c2cnc(N)c(-c3nnc(-c4cccs4)o3)n2)cc1 [IA-52]
5 | 10 to 100 | Nc1ncc(-c2cccc(C(=O)N3CCOCC3)c2)nc1-c1nc2ccccc2[nH]1 [Compound I-125, (3-(5-amino-6-(1H-benzo[d]imidazol-2-yl)pyrazin-2-yl)phenyl) (morpholino)methanone]
6 | 10 to 100 | COc1ccc(-c2nnc(-c3nc(-c4ccc(C(=O)N(C)C)cc4)cnc3N)o2)cc1 [IA-157, 4-[5-amino-6-[5-(4-methoxyphenyl)-1,3,4-oxadiazol-2-yl]pyrazin-2-yl]-N,N-dimethyl-benzamide]
7 | 100 to 5000 | COC1CN(C(=O)c2cccc(-c3cnc(N)c(C(=O)Nc4ccccc4)n3)c2)C1 [Compound I-60, 3-amino-6-(3-(3-methoxyazetidine-1-carbonyl)phenyl)-N-phenylpyrazine-2-carboxamide]
8 | 10 to 100 | CC(=O)Nc1nnc(-c2nc(-c3ccc(S(=O)(=O)C(C)C)cc3)cnc2N)o1 [IA-177, N-[5-[3-amino-6-(4-isopropylsulfonylphenyl)pyrazin-2-yl]-1,3,4-oxadiazol-2-yl]acetamide]
9 | 100 to 5000 | Nc1ncc(-c2ccc(F)cc2)nc1C(=O)Nc1ccccc1 [Compound I-4, 3-amino-6-(4-fluorophenyl)-N-phenylpyrazine-2-carboxamide]
10 | ≤ 10 | CNC(C)c1ccc(-c2nnc(-c3nc(-c4ccc(S(=O)(=O)C(C)C)cc4)cnc3N)o2)cc1 (stereo not drawn) [IA-212, 5-(4-isopropylsulfonylphenyl)-3-[5-[4-[1-(methylamino)ethyl]phenyl]-1,3,4-oxadiazol-2-yl]pyrazin-2-amine]
11 | 100 to 5000 | Nc1ncc(-c2cccnc2)nc1C(=O)Nc1ccccn1 [Compound I-97, 3-amino-N-(pyridin-2-yl)-6-(pyridin-3-yl)pyrazine-2-carboxamide]
12 | 10 to 100 | CS(=O)(=O)c1cccc(-c2cnc(N)c(-c3nc4ccccc4[nH]3)n2)c1 [Compound I-122, 3-(1H-benzo[d]imidazol-2-yl)-5-(3-(methylsulfonyl)phenyl)pyrazin-2-amine]
13 | ≤ 10 | CNCc1ccc(-c2nnc(-c3nc(-c4ccc(S(=O)(=O)C(C)C)cc4C)cnc3N)o2)cc1 [IA-293, 5-(4-isopropylsulfonyl-2-methyl-phenyl)-3-[5-[4-(methylaminomethyl)phenyl]-1,3,4-oxadiazol-2-yl]pyrazin-2-amine]
14 | ≤ 10 | CCCS(=O)(=O)c1ccc(-c2cnc(N)c(-c3nnc(-c4ccc(CNC)cc4)o3)n2)cc1 [IA-310, 3-[5-[4-(methylaminomethyl)phenyl]-1,3,4-oxadiazol-2-yl]-5-(4-propylsulfonylphenyl)pyrazin-2-amine]
15 | ≤ 10 | Nc1ncc(-c2ccc(C(=O)N3CCCNCC3)cc2)nc1C(=O)Nc1n[nH]c2ccccc12 [Compound V-8]
16 | ≤ 10 | CC(C)S(=O)(=O)c1ccc(-c2cnc(N)c(-c3nnc(C(=O)O)o3)n2)cc1 [IA-128, 5-[3-amino-6-(4-isopropylsulfonylphenyl)pyrazin-2-yl]-1,3,4-oxadiazole-2-carboxylic acid]
17 | 100 to 5000 | Nc1ncc(-c2ccccc2F)nc1C(=O)Nc1ccccc1 [Compound I-14, 3-amino-6-(2-fluorophenyl)-N-phenylpyrazine-2-carboxamide]
18 | 100 to 5000 | Nc1ncc(-c2ccccc2C(F)(F)F)nc1C(=O)Nc1ccccc1 [Compound I-6, 3-amino-N-phenyl-6-(2-(trifluoromethyl)phenyl)pyrazine-2-carboxamide]
19 | 10 to 100 | Nc1ncc(-c2cccnc2)nc1C(=O)Nc1ccc2cc[nH]c2c1 [Compound V-16]
20 | 100 to 5000 | CC(C)S(=O)(=O)c1ccc(-c2cnc(N)c(-c3nnc(C4=CCN(C(=O)OC(C)(C)C)CC4)o3)n2)cc1 [IA-95, tert-butyl 4-[5-[3-amino-6-(4-isopropylsulfonylphenyl)pyrazin-2-yl]-1,3,4-oxadiazol-2-yl]-3,6-dihydro-2H-pyridine-1-carboxylate]
21 | ≤ 10 | CC(C)S(=O)(=O)c1ccc(-c2cnc(N)c(-c3nnc(-c4ccc(CNC[C@H](C)O)cc4F)o3)n2)cc1 [IA-334, (S)-1-(4-(5-(3-amino-6-(4-(isopropylsulfonyl)phenyl)pyrazin-2-yl)-1,3,4-oxadiazol-2-yl)-3-fluorobenzylamino)propan-2-ol]

Row | Ki [nM] | Compound
22 | 100 to 5000 | N#Cc1cccc(NC(=O)c2nc(-c3cccnc3)cnc2N)c1 [Compound I-87, 3-amino-N-(3-cyanophenyl)-6-(pyridin-3-yl)pyrazine-2-carboxamide]
23 | ≤ 10 | CC(C)S(=O)(=O)c1ccc(-c2cnc(N)c(-c3cc(-c4ccc(CN)cc4)no3)n2)cc1 [IIA-5, 3-[3-[4-(aminomethyl)phenyl]isoxazol-5-yl]-5-(4-isopropylsulfonylphenyl)pyrazin-2-amine]
24 | 10 to 100 | CC(C)S(=O)(=O)c1ccc(-c2cnc(N)c(-c3nnc(N4CCC(CN)CC4)o3)n2)cc1 [IA-138, 3-[5-[4-(aminomethyl)-1-piperidyl]-1,3,4-oxadiazol-2-yl]-5-(4-isopropylsulfonylphenyl)pyrazin-2-amine]
25 | ≤ 10 | CNCc1cccc(NC(=O)c2nc(-c3ccc(S(=O)(=O)C(C)C)cc3)cnc2N)c1 [VII-12]
26 | 10 to 100 | CN(C)C(=O)c1ccc(-c2cnc(N)c(-c3nnc(-c4sccc4C#N)o3)n2)cc1 [IA-189, 4-[5-amino-6-[5-(3-cyano-2-thienyl)-1,3,4-oxadiazol-2-yl]pyrazin-2-yl]-N,N-dimethyl-benzamide]
27 | 100 to 5000 | Nc1ncc(-c2ccc(CO)cc2)nc1C(=O)Nc1ccccc1 [Compound I-16, 3-amino-6-(4-(hydroxymethyl)phenyl)-N-phenylpyrazine-2-carboxamide]
28 | 10 to 100 | Cc1cccc2nc(-c3nc(-c4ccc(S(C)(=O)=O)cc4)cnc3N)[nH]c12 [Compound I-119, 3-(7-methyl-1H-benzo[d]imidazol-2-yl)-5-(4-(methylsulfonyl)phenyl) pyrazin-2-amine]
29 | 100 to 5000 | Nc1ncc(-c2ccc(N3CCNCC3)nc2)nc1-c1nnc(-c2ccccc2)o1 [IA-186, 3-(5-phenyl-1,3,4-oxadiazol-2-yl)-5-(6-piperazin-1-yl-3-pyridyl)pyrazin-2-amine]
30 | ≤ 10 | CC(C)S(=O)(=O)c1ccc(-c2cnc(N)c(-c3nnc(-c4ccc(C(=N)N)cc4)o3)n2)cc1 [IA-70, 4-[5-[3-amino-6-(4-isopropylsulfonylphenyl)pyrazin-2-yl]-1,3,4-oxadiazol-2-yl]benzamidine]
31 | 100 to 5000 | CN(C)CCCOc1ccc(-c2cnc(N)c(-c3nnc(-c4ccccc4)o3)n2)cn1 [IA-279, 5-[6-[3-(dimethylamino)propoxy]-3-pyridyl]-3-(5-phenyl-1,3,4-oxadiazol-2-yl)pyrazin-2-amine]
32 | 100 to 5000 | CC(C)S(=O)(=O)c1ccc(-c2cnc(N)c(-c3nnc(C(=O)NCC4CCCNC4)o3)n2)cc1 (stereo not drawn) [IA-255, 5-[3-amino-6-(4-isopropylsulfonylphenyl)pyrazin-2-yl]-N-(3-piperidylmethyl)-1,3,4-oxadiazole-2-carboxamide]
33 | 10 to 100 | CS(=O)(=O)c1ccc(-c2cnc(N)c(C(=O)Nc3ncns3)n2)cc1 [VII-7]
34 | 10 to 100 | CN(C)C(=O)c1ccc(-c2cnc(N)c(-c3nnc(-c4ccccc4C(F)(F)F)o3)n2)cc1 [IA-233, 4-[5-amino-6-[5-[2-(trifluoromethyl)phenyl]-1,3,4-oxadiazol-2-yl]pyrazin-2-yl]-N,N-dimethyl-benzamide]
35 | ≤ 10 | CNCc1ccc(-c2nnc(-c3nc(-c4ccc(C(=O)N(C)C)cc4)cnc3N)o2)cc1 [IA-281, 4-[5-amino-6-[5-[4-(methylaminomethyl)phenyl]-1,3,4-oxadiazol-2-yl]pyrazin-2-yl]-N,N-dimethyl-benzamide]
36 | 10 to 100 | CC(C)S(=O)(=O)c1ccc(-c2cnc(N)c(-c3nnc(C(=O)N4CC(N)C4)o3)n2)cc1 [IA-120, (3-aminoazetidin-1-yl)-[5-[3-amino-6-(4-isopropylsulfonylphenyl)pyrazin-2-yl]-1,3,4-oxadiazol-2-yl]methanone]
37 | ≤ 10 | Nc1ncc(-c2ccc(C(=O)N3CCCNCC3)nc2)nc1-c1nnc(-c2ccccc2)o1 [IA-47]
38 | 100 to 5000 | NC(=O)C1CCN(C(=O)c2cccc(-c3cnc(N)c(C(=O)Nc4ccccc4)n3)c2)CC1 [Compound I-62, 3-amino-6-(3-(4-carbamoylpiperidine-1-carbonyl)phenyl)-N-phenylpyrazine-2-carboxamide]
39 | ≤ 10 | CC(C)NCc1ccc(-c2cc(-c3nc(-c4ccc(S(=O)(=O)C(C)C)cc4)cnc3N)on2)cc1 [IIA-8, 3-[3-[4-[(isopropylamino)methyl]phenyl]isoxazol-5-yl]-5-(4-isopropylsulfonylphenyl)pyrazin-2-amine]
40 | 100 to 5000 | Nc1ncc(-c2cccc(F)c2)nc1C(=O)Nc1ccccc1 [Compound I-9, 3-amino-6-(3-fluorophenyl)-N-phenylpyrazine-2-carboxamide]
41 | ≤ 10 | COCCNCc1ccc(-c2nnc(-c3nc(-c4ccc(S(=O)(=O)C(C)C)cc4)cnc3N)o2)cc1 [IA-119, 5-(4-isopropylsulfonylphenyl)-3-[5-[4-[(2-methoxyethylamino)methyl]phenyl]-1,3,4-oxadiazol-2-yl]pyrazin-2-amine]
42 | 10 to 100 | Nc1ncc(-c2cccnc2)nc1C(=O)Nc1cccc(S(N)(=O)=O)c1 [Compound I-101, 3-amino-6-(pyridin-3-yl)-N-(3-sulfamoylphenyl)pyrazine-2-carboxamide]
